From patent US20160303089A1, “COMPOUND PERTAINING TO NEUROPOIESIS AND DRUG COMPOSITION” (KYOTO UNIVERSITY, priority 2013, published 2016)

How the values were obtained:
DYRKIB = DYRKIB (Homo sapiens, UniProt Q9Y463); test: In vitro assay of the inhibition of protein phosphorylation activity; type: biochemical
DYRK1A [1] = molecular target: T1, DYRK1A (Homo sapiens, UniProt Q13627); test: as above; type: biochemical
DYRK3 = molecular target: T2, DYRK3 (Homo sapiens, UniProt O43781); test: as above; type: biochemical
T2 sequence (O43781 1-588): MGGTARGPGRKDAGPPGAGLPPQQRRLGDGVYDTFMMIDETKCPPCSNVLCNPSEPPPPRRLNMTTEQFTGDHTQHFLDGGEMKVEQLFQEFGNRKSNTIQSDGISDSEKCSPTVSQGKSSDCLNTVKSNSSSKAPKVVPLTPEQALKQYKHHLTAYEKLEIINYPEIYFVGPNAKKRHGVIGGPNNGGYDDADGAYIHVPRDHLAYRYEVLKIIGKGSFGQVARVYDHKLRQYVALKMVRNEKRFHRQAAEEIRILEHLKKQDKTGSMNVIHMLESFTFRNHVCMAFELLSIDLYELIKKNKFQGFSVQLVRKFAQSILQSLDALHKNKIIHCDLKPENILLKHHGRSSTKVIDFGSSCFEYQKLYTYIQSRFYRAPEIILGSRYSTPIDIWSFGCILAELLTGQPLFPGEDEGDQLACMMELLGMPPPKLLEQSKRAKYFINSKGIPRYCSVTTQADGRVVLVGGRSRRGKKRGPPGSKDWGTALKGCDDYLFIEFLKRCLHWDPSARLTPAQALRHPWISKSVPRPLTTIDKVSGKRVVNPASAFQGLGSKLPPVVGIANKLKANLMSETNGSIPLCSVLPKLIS

CLK3 = CLK3 (Homo sapiens, UniProt P49761); test: as above; type: biochemical
[2] = test system: phosphorylation of tau protein; test: Tau phosphorylation in brain, acute cold water stress model (western blotting); type: in vivo; conditions: administered 30 minutes before cold water stress (10 minutes); brains collected 5 minutes later
Description: Further, the study was conducted to investigate whether the compounds 1 to 2 inhibited the DYRK activity in the animal individuals in vivo by using phosphorylation of tau protein due to acute cold water stress as a marker. The animals were exposed to cold water stress for 10 minutes, and their brains were collected 5 minutes later. Then, the phosphorylation of the tau protein in the brains was confirmed by western blotting. Consequently, the phosphorylation of the tau protein was enhanced by the acute cold water stress. When the compound 1 or the compound 2 was administered to the animal individuals 30 minutes before they underwent the cold water stress, the tau phosphorylation caused by the cold water stress was inhibited.

CLK1 = CLK1 (Homo sapiens, UniProt P49759); test: In vitro assay of the inhibition of protein phosphorylation activity; type: biochemical
CLK2 = CLK2 (Homo sapiens, UniProt P49760); test: as above; type: biochemical
DYRK2 [3] = molecular target: T3, DYRK2 (Homo sapiens, UniProt Q92630); test: as above; type: biochemical
T3 construct: expressed in transfected cells; host or cells: HEK293 Flp-In
T3 sequence (Q92630 1-601): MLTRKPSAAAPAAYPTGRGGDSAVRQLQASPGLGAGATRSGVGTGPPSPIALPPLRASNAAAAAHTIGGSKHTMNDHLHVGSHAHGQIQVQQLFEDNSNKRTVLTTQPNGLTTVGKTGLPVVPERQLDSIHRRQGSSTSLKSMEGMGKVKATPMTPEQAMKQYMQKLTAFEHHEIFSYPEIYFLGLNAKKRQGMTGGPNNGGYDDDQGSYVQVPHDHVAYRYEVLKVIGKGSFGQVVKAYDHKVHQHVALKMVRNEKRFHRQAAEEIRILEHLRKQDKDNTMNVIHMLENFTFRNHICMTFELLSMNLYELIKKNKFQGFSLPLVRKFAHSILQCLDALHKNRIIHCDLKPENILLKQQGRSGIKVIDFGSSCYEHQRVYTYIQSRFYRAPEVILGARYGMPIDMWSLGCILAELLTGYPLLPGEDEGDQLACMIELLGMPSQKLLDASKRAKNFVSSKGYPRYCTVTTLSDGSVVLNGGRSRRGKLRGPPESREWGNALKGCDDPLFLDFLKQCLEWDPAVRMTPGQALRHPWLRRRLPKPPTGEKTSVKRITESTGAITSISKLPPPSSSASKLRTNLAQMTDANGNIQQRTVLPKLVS

[4] = test system: neural stem cells in the dentate gyrus of the hippocampus; test: Neurogenesis in dentate gyrus of hippocampus of mice (BrdU positive cells); type: in vivo, C57BL/6J mice; conditions: oral, 30 mg/kg and 100 mg/kg for 10 or 30 days; depended on the dosage; compared to solvent control
Description: The effect of the compound 2 on neurogenesis in animal individuals (rodents) was studied. The subgranular zone of the dentate gyrus of the hippocampus is a region where neurogenesis occurs. In this region, 5-bromo-2′-deoxyuridine (BrdU) was used as a cell proliferation marker to specifically detect proliferating cells and quantitatively compare the number of proliferating cells. Specifically, the experiments were performed in the following manner. The compound 2 was prepared with a carboxymethyl cellulose solvent and orally administered repeatedly to 9-week-old male C57BL/6J mice (each weighing 25 g) in a dosage of 30 mg/kg and 100 mg/kg for 10 or 30 days. On the last day of the administration, 150 mg/kg of BrdU were intraperitoneally injected into the mice, and the samples were collected 24 hours later by perfusion fixation. Then, coronal sections of 50 μm were prepared by a microtome. After the denaturation of DNA by 1.5 N hydrochloric acid, an anti-BrdU antibody was used to detect BrdU that had been incorporated into the proliferating neural stem cells.

DYRKIA = molecular target: T4, DYRKIA (Homo sapiens, UniProt Q13627); test: Cyclin D1 expression in HEK293 Flp-In cell line with inducible DYRK expression (western blotting); type: cell-based
T4 construct: expressed in transfected cells; host or cells: HEK293 Flp-In
Description: (§1) Using cell lines that can induce the expression of DYRKIA, DYRKIB, and DYRK2 by the addition of a drug, the expression level of cyclin D1 was examined when DYRK was overexpressed (see FIG. 8). Specifically, the experiments were performed in the following manner.
(§2) A HEK293 Flp-In cell system was used to prepare cell lines that can induce the expression of each of DYRKIA, DYRK1B, and DYRK2 of the DYRK family by the addition of a drug. The cells were treated with the drug for 16 hours to induce the expression of DYRK, and then cultured in the presence of the compound 2 (5 μM) for 4 hours. After the cells were collected, the expression level of cyclin D1 was analyzed by western blotting (see FIG. 8).

DYRK2 [5] = molecular target: T3, DYRK2; test: as above; type: cell-based
Description: as §1, §2

DYRK1B = molecular target: T5, DYRK1B (Homo sapiens, UniProt Q9Y463); test: as above; type: cell-based
T5 construct: expressed in transfected cells; host or cells: HEK293 Flp-In
Description: as §1, §2

DYRK1A [6] = molecular target: T1, DYRK1A; test: Tau phosphorylation in cell lines with induced expression of DYRK1A and tau protein (western blotting); type: cell-based; set-up: dose or concentration left out as unconfirmed; conditions: compound for 4 hours after induced expression of DYRK1A and tau
Description: Moreover, the study was conducted to investigate whether the compound 3 inhibited the DYRK activity in the cells in vivo by using phosphorylation of tau protein (substrate) as a marker. First, cell lines that can induce the expression of DYRK1A and a tau protein by a drug were established. The cell lines were subjected to the drug treatment to induce the expression of DYRKIA and the tau protein. Then, the cells were treated with the compound 3 […] for 4 hours. After the cells were collected, the phosphorylation of the tau protein was detected by western blotting. The results confirmed that the treatment of the cells with the compound 3 inhibited the tau phosphorylation.

T5 sequence (Q9Y463 whole entry, species assumed): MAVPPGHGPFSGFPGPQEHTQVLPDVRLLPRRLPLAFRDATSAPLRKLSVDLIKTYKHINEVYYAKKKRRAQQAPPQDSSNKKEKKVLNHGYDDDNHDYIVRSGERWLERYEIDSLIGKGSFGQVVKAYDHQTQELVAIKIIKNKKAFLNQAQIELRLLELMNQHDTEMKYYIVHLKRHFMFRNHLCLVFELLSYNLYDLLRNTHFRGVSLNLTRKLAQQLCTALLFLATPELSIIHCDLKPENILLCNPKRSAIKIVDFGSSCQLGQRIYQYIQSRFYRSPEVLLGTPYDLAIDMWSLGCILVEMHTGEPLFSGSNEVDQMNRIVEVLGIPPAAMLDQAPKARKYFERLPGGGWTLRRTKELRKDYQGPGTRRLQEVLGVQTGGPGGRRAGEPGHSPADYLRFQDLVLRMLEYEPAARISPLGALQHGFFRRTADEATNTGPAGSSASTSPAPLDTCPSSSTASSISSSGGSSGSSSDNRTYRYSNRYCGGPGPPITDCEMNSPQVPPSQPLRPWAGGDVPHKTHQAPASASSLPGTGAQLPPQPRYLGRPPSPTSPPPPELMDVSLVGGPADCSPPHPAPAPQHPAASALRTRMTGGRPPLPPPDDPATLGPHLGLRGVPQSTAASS
Chain of CLK3 (P49761 whole entry, species assumed): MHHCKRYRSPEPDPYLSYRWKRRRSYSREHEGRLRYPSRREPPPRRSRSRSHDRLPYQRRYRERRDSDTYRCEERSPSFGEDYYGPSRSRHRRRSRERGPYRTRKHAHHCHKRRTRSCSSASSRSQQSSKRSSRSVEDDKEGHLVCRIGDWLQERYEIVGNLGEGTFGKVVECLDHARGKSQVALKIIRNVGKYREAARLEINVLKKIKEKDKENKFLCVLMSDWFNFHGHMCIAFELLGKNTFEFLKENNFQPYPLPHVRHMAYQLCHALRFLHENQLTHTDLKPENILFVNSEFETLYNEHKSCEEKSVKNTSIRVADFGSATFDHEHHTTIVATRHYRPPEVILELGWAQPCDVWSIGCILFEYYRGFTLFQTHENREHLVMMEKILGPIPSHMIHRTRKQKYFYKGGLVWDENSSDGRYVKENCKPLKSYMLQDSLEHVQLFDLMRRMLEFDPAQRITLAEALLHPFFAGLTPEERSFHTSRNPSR
Chain of CLK2 (P49760 whole entry, species assumed): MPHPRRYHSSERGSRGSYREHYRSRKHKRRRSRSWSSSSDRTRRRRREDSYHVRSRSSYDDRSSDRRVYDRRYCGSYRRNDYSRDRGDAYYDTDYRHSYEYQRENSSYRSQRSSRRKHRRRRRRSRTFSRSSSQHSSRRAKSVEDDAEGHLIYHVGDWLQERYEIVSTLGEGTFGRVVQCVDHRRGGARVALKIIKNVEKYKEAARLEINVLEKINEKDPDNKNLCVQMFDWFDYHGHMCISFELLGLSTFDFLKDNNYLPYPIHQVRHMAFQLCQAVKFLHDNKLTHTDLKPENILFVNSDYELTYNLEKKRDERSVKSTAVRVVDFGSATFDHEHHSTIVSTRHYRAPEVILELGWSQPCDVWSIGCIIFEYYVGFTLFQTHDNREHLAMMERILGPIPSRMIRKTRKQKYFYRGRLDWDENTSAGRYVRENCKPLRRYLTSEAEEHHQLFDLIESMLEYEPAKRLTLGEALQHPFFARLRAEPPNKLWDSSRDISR
Chain of DYRKIB (Q9Y463 whole entry): as the sequence (Q9Y463 whole entry, species assumed) above
Chain of CLK1 (P49759 whole entry): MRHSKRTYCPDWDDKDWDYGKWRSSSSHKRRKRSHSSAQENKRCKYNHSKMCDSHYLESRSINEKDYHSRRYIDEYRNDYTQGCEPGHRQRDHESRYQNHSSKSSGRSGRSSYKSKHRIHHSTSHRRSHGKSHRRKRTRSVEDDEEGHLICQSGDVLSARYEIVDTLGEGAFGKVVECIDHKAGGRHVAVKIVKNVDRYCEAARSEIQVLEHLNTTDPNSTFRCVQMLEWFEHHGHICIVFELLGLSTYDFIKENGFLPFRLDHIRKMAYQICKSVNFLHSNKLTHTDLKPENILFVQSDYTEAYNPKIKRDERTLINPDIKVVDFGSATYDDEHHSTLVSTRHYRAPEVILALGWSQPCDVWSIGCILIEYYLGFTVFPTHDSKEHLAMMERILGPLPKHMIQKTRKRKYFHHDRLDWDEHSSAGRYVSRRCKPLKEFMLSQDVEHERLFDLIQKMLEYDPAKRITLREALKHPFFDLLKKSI

| SMILES | inhibition of the DYRKIB activity (DYRKIB) | inhibition of the DYRK1A activity (DYRK1A [1]) | inhibition of the DYRK3 activity (DYRK3) | inhibition of the CLK3 activity (CLK3) | tau phosphorylation caused by the cold water stress (brain) [2] | inhibition of the CLK1 activity (CLK1) | inhibition of the CLK2 activity (CLK2) | inhibition of the DYRK2 activity (DYRK2 [3]) | number of proliferating cells (BrdU positive) in the subgranular zone of the dentate gyrus of the hippocampus [4] | expression level of cyclin D1 (DYRKIA; DYRKIA cell line, compound 5 μM for 4 hours, lane 2 of FIG. 8) | reduction in cyclin D1 by inducing the expression of DYRK (DYRKIA; DYRKIA expression induced 16 hours, then compound 5 μM for 4 hours, lane 4 of FIG. 8) | expression level of cyclin D1 (DYRK2 [5]; DYRK2 cell line, compound 5 μM for 4 hours, lane 10 of FIG. 8) | reduction in cyclin D1 by inducing the expression of DYRK (DYRK2 [5]; DYRK2 expression induced 16 hours, then compound 5 μM for 4 hours, lane 12 of FIG. 8) | expression level of cyclin D1 (DYRK1B; DYRK1B cell line, compound 5 μM for 4 hours, lane 6 of FIG. 8) | reduction in cyclin D1 by inducing the expression of DYRK (DYRK1B; DYRK1B expression induced 16 hours, then compound 5 μM for 4 hours, lane 8 of FIG. 8) | tau phosphorylation in cells (DYRK1A [6]) |
| --- | --- | --- | --- | --- | --- | --- | --- | --- | --- | --- | --- | --- | --- | --- | --- | --- |
| CCN1/C(=C/C(C)=O)Sc2ccc3c(c21)CCO3 [compound 1, (Z)-1-[1-ethyl-7,8-dihydrobenzofuro[4,5-d]thiazol-2(1H)-ylidene]propan-2-one] | 99% | 98% | 100% | 80% | inhibited | 99% | 98% | 100% | – | – | – | – | – | – | – | – |
| CCN1/C(=C/C(C)=O)Sc2ccc3occc3c21 [compound 2, (Z)-1-[1-ethyl-7,8-benzofuro[4,5-d]thiazol-2(1H)-ylidene]propan-2-one] | – | – | – | – | inhibited | – | – | – | significantly large | increased | corrected | increased | corrected | increased | corrected | – |
| COc1ccc2c([nH]c3c(C)nccc32)c1C#C[Si](C)(C)C [compound 3, 8-[2-(trimethylsilyl)ethynyl]harmine] | – | – | – | – | – | – | – | – | – | – | – | – | – | – | – | inhibited |
